Consider 11 compounds from PubChem BioAssay AID651688 (The Scripps Research Institute Molecular Screening Center, 2012).

The source made the active and inactive calls. No rule for the calls is given here.

The assay deals with 5-hydroxytryptamine receptor 5A (Homo sapiens) (UniProt P47898). In words: HTR5A activation, luminescence read-out – cell-based, dose response, counter-screen for OPRM1-OPRD1 heterodimer activator project, late-stage follow-up (AID 651688). The following applies: HTR5A counterscreen cells, luminescence (beta-arrestin/complementation).
Chain of 5-hydroxytryptamine receptor 5A (Homo sapiens) (P47898 whole entry, looked up): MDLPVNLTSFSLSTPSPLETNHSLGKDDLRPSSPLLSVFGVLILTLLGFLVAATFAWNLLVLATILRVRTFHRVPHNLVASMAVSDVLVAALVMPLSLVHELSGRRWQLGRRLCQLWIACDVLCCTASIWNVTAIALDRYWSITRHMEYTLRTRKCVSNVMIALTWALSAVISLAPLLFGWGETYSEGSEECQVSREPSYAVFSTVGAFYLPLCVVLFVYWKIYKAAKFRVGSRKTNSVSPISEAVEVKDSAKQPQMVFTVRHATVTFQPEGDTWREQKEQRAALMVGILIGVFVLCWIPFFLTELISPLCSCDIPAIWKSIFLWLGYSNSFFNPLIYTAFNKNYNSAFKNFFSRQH
Regarding `CCOC(=O)C1(CCOc2ccccc2)CCN(Cc2cccn2-c2cccnc2)CC1`, the EC50 is > 40 µM (inactive).
The same measure for `CCOC(=O)C1(CCc2ccccc2)CCN(Cc2cc(C)cc(C)c2)CC1`: > 40 µM (inactive); for `CCOC(=O)C1(Cc2ccccc2)CCN(Cc2cccn2-c2cccnc2)CC1`: > 40 µM (inactive); for `CCOC(=O)C1(CC2CCCCO2)CCN(Cc2c(C)cc(C)cc2-n2cccn2)CC1` (stereo unspecified): > 40 µM (inactive).
The same measure for `CCOC(=O)C1(CCc2ccccc2)CCN(Cc2ccc(OC(C)C)c(C#N)c2)CC1`: > 40 µM (inactive); for `CCOC(=O)C1(CCCc2ccccc2)CCN(Cc2cnn(C)c2)CC1`: > 40 µM (inactive).
For `CCOC(=O)C1(CCc2ccccc2)CCN(Cc2ccc(NC(C)=O)cc2)CC1`, the EC50 was > 40 µM (inactive).
Turning to `CCOC(=O)C1(CCOc2ccccc2)CCN(Cc2ccc(O)c(OC)c2)CC1`, the EC50 is > 40 µM (inactive).
The same measure for `OCC1(CCc2ccccc2)CCN(Cc2cc(F)ccc2-n2cccn2)CC1`: > 40 µM (inactive).
Turning to `CCOC(=O)C1(Cc2ccccc2)CCN(Cc2cccn2-c2nccs2)CC1`, the EC50 is > 40 µM (inactive).
The same measure for `CCOC(=O)C1(CCc2ccccc2)CCN(Cc2ccccc2C)CC1`: > 40 µM (inactive).
